The structures appear in SMILES notation. pKi: −log10 of the molar value. “And” between values parts separate entries of the source, which are not always exact repeats. Equal values may be shown once. Read-outs that look alike come from different tables or passages of the source.

We go through one compound from patent US20250066388A1, “1,3,4,7-TETRAHYDRO-2H-PYRROLO[3',2':5,6]PYRIDO[2,3-B][1,4]OXAZEPINE BCL-2 INHIBITORS” (AbbVie Inc., priority 2022, published 2025).

The target of one data set is Bcl-2 protein (Homo sapiens (Human), UniProt P10415). Description: TR-FRET binding assay, Bcl-2. To be noted: F-Bak peptide probe, GST-Bcl-2. A general note: In TR-FRET formats the signal depends on donor and acceptor labels being close together.
Chain of Bcl-2 protein (P10415 other isoform, or with tags, fused parts or gaps): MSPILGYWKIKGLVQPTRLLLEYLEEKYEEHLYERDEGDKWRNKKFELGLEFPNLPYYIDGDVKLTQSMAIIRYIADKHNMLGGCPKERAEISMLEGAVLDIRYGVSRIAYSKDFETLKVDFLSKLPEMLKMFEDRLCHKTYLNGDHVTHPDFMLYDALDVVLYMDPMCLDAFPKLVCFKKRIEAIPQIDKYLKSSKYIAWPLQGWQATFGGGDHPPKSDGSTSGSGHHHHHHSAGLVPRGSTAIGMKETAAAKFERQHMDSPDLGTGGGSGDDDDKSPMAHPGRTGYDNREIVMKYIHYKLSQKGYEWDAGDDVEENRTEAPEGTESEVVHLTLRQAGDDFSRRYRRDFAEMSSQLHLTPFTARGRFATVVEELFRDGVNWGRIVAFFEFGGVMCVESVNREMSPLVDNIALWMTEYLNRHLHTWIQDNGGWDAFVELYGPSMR
In a further data set the target is Bcl-xL protein (Homo sapiens (Human), UniProt Q07817). Put plainly: TR-FRET binding assay, Bcl-xL. To be noted: F-Bak peptide probe.
Chain of Bcl-xL protein (Q07817 other isoform, or with tags, fused parts or gaps): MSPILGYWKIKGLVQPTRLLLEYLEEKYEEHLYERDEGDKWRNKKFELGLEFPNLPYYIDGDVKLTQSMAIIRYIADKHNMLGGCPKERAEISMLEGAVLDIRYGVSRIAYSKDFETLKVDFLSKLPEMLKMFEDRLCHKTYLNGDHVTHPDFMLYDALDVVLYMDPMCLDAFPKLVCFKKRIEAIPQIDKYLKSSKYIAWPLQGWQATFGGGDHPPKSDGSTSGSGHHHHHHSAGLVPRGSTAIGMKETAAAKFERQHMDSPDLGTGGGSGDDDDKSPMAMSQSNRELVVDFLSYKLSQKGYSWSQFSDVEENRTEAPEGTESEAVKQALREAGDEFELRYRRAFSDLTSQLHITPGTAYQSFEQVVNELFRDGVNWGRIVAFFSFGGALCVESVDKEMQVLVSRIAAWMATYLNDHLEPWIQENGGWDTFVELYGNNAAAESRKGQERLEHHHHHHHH
Data set [1] can be described thus: Bioavailability study: pharmacokinetics after single intravenous or oral dose in mouse. It counts as in vivo. To be noted: for half-life: CD-1, mouse, plasma, 1 mg/kg. The protocol: Studies were conducted to evaluate the pharmacokinetic profiles of Example 25 herein and Example 2 in WO 2019/040550 after single intravenous or oral dose in mouse. CD-1 mice (male) were obtained from Charles River Laboratories (Wilmington, MA).
The pharmacokinetics of Example 25 herein and Example 2 in WO 2019/040550 were evaluated following single 1 mg/kg intravenous or oral doses in mouse. Example 25 herein and Example 2 in WO 2019/040550 were prepared as a solution in DMSO: Tween 80: PEG-400: Dextrose 5% in Water (5:5:20:70, v/v) for the IV and oral dose mouse studies. The intravenous dose was administered as a slow bolus to the penile vein under isoflurane anesthesia. The oral doses were administrated by gavage. Serial blood samples were obtained […], 0.25, 0.5, 1.0, 4, 6, 9, 12, 24, 32 and 48 hours post dosing and […]. Plasma was separated by centrifugation and stored frozen (<−15° C.) until analysis.
HPLC-MS/MS bioanalytical methods were utilized for the quantitation of Example 25 herein and Example 2 in WO 2019/040550 concentration in plasma. The analytical methods used protein precipitation to extract compound from plasma. All samples were combined with a minimum two volume equivalents of organic solvent containing internal standard, vortexed and then centrifuged to pellet the proteins. Supernatants were used for subsequent analysis by liquid chromatography-tandem mass spectrometry (LC-MS/MS). Studies involving quantitative analysis employed spiked standards in plasma that were processed simultaneously with the samples.
Analytes were separated using reverse phase chromatography on a C8 or C18 column prior to analysis on an API5500™ (or higher) mass spectrometer with a Turbo-Ion Spray source. Peak areas were determined using Sciex Analyst™ 1.6 (or higher) software or Sound Analytics DiscoveryQuant™ 2.0 (or higher) software. Actual concentrations (when required) were calculated by regression analysis of the peak area ratio (parent/internal standard) of the spiked standards versus concentrations.
Peak plasma concentrations (Cmax) and the time to peak plasma concentration (Tmax) were determined directly from the plasma concentration data for each animal. The compound plasma concentration data were submitted to multi-exponential curve fitting using WinNonlin software. The area under the plasma concentration-time curve from 0 to t hours after dosing (AUC0-t, t=time of the last measurable plasma concentration) was calculated using the linear trapezoidal rule. The residual area extrapolated to infinity, determined as the final measured plasma concentration (Ct) divided by the terminal plasma elimination rate constant (β), was added to the AUC0-t to produce the total area under the curve (AUC0-∞). The apparent total plasma clearance (CLp) was calculated by dividing the administered dose by the AUC0-∞. Half-life (t1/2) was determined with the following calculation: t1/2=ln (2)/elimination rate constant. The initial volume of distribution (Vc) was calculated as the dose divided by the extrapolated concentration at time=0 (C0). The volume of distribution at steady state, Vss, was estimated as a product of the total plasma clearance (CLp) and the mean residence time (MRT); the terminal-phase volume of distribution, Vβ, was derived from the total plasma clearance value (CLp) divided by the terminal plasma elimination rate constant (β). Oral bioavailability (F) was calculated as the dose-normalized AUC0-∞ (AUC0-∞/D) from the oral dose divided by the corresponding dose normalized AUC0-∞ from intravenous dosing.

Where [2] appears, read: IV (1 mg/kg), mouse plasma, individual mouse.
The mark [3] stands for this setting: PO (1 mg/kg), mouse plasma, individual mouse.

In the case of `CO[C@@H]1CC[C@@H](CNc2ccc(S(=O)(=O)NC(=O)c3ccc(N4CCN5CC6=C(c7ccc(Cl)cc7)CC(C)(C)C[C@H]6OCCCOC[C@@H]5C4)cc3N3CCCOc4nc5[nH]ccc5cc43)cc2[N+](=O)[O-])OC1` [Example 25, 4-((4aS,10aR)-14-(4-chlorophenyl)-12,12-dimethyl-1,2,4a,5,8,9,10a,11,13,15-decahydro-7H,12H-benzo[f]pyrazino[2,1-c][1,8]dioxa[4]azacycloundecin-3(4H)-yl)-2-(3,4-dihydro-2H-pyrrolo[3′,2′:5,6]pyrido[2,3-b][1,4]oxazepin-1(7H)-yl)-N-((4-((((2S,5R)-5-methoxytetrahydro-2H-pyran-2-yl)methyl)amino)-3-nitrophenyl)sulfonyl)benzamide], the pKi (usually the negative decadic logarithm of the Ki, by convention in mol/L) at Bcl-2 protein is 9.56. In addition, the pKi at Bcl-xL protein is 7.87. Further, in data set [1] (setting [2]), the AUC (as a rule, concentration integrated over time) is 11200 ng·h/mL and 12900 ng·h/mL; the C0 was 5020 ng/mL and 3470 ng/mL; the CLP stood at 1.48 mL/min/kg; the MRT (as a rule, the average time that molecules of a dose stay in the body) was determined as 9.8 h. Further, in data set [1] (setting [2]), the VSS was 0.93 L/kg and 0.76 L/kg; the Vβ is 0.95 L/kg and 1.0 L/kg and 0.90 L/kg; the t1/2 was 7.9 h and 8.1 h. Moreover, the Vβ in data set [1] (IV (1 mg/kg), mouse plasma, mean) was 0.96 L/kg. Also, in data set [1] (setting [3]), the AUC was 4330 ng·h/mL and 4490 ng·h/mL; the Cmax (as a rule, the highest concentration seen after dosing) is 279 ng/mL and 274 ng/mL. Moreover, the half-life (usually the time in which the quantity being followed falls by half) in data set [1] (male, iv, IV (1 mg/kg), individual mouse) was 10 h. The same compound gave a half-life in data set [1] (male, po, PO (1 mg/kg), harmonic mean) of 8.7 h. For the same compound, the half-life in data set [1] (male, po, PO (1 mg/kg), individual mouse) is 8.7 h. Besides, the MRT in data set [1] (male, CD-1, IV (1 mg/kg), mouse plasma, individual mouse, read-out: MRT) stood at 10 h. Also, the clearance in data set [1] (male, CD-1, IV (1 mg/kg), mouse plasma, mean, read-out: CLP (converted)) is 1.28 mL/min/kg. The Tmax – broadly, the time from dosing to the highest level – in data set [1] (male, CD-1, PO (1 mg/kg), mouse plasma, individual mouse) turned out to be 4 h.
